We go through 28 compounds from PubChem BioAssay AID449764 (Southern Research Specialized Biocontainment Screening …, 2010).

The subject of this experiment is Mycobacterium tuberculosis H37Rv growth inhibition, no glycerol. The experiment is described as follows: Confirmatory growth inhibition assay, Mycobacterium tuberculosis H37Rv, absence of glycerol (AID 449764).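 As to all read-outs here: growth read after 7 days of incubation.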 Conditions: for IC90: measured here: IC90 growth inhibition.

For `CCc1ccc(-c2csc(-c3c[nH]c4ccccc34)n2)cc1`, the IC50 is 17.1 µM and the IC90 was determined as 21.3 µM.

`COc1ccc(-c2nnc(SCC(=O)N3CCc4ccccc4C3)o2)cc1`: the IC50 is 30.6 µM and the IC90 is 45.3 µM.

For the compound `Cc1sc2ncnc(N3CCC(C(=O)N(CC(C)C)c4nc5ccccc5s4)CC3)c2c1C`, the IC90 was more than 100 µM.

Turning to `CCOC(=O)CNC(=O)CNC(=O)c1nn(-c2ccc(OC)c(Cl)c2)c(=O)c2ccccc12`, the IC50 is 38 µM and the IC90 is more than 100 µM.

Turning to `CCCOP(=O)(OCCC)c1c([N+](=O)[O-])cc(C(F)(F)F)cc1[N+](=O)[O-]`, the IC50 is 5.5 µM and the IC90 turned out to be 7.7 µM.

Consider `COc1ccc2cc1Oc1ccc(cc1)C[C@H]1c3c(cc(OC)c4c3Oc3c(ccc5c3[C@H](C2)N(C)CC5)O4)CCN1C`, for which the IC50 was 5.54 µM and the IC90 is 6.24 µM.

In the case of `Cc1cc(C)cc(NC(=O)CCc2ccc(C)o2)c1`, the IC50 was 92.9 µM and the IC90 is more than 100 µM.

As for `Ic1ccccc1CN[C@@H]1C2CCN(CC2)[C@@H]1C(c1ccccc1)c1ccccc1`, the IC50 is 28.9 µM and the IC90 turned out to be 42.7 µM.

Turning to `CC(OC(=O)c1cnc2ccccc2n1)c1ccccc1Cl` (stereo not given), the IC50 is 22 µM and the IC90 was 34 µM.

On to `CN1CCc2cc3c(c4c2C1Cc1ccccc1-4)OCO3` (stereo not given), for which the IC50 was 2.35 µM and the IC90 amounted to 3.03 µM.

Turning to `CCN=c1scc(-c2ccco2)n1/N=C/c1ccc(OC)c(O)c1`, the IC50 is 23.2 µM and the IC90 stood at 35.1 µM.

For `C/C(=N\Nc1ccc(Cl)c(Cl)c1)c1ccc(-n2ccnc2)cc1`, the IC50 was 87.2 µM and the IC90 stood at 95.6 µM.

Take `CN1C(=S)SC(N(O)C(=O)Nc2ccc(Cl)c(Cl)c2)C1(C)C` (stereo not given): the IC50 is 23.4 µM and the IC90 turned out to be 26.6 µM.

As to `Cc1nn(-c2ccccc2)c(Cl)c1/C=C/C(=O)c1ccccc1`, the IC50 was 74.9 µM and the IC90 stood at 97.2 µM.

Regarding `CC1(C)c2cc(Cl)ccc2-n2c1cc(O)c(-c1ccccc1)c2=O`, the IC50 is 8.61 µM and the IC90 is 18.1 µM.

For `COc1ccc(NC(C)C(=O)Nc2ccc(C(C)(C)C)cc2)cc1Cl` (stereo not given), the IC50 was 94.1 µM and the IC90 was more than 100 µM.

`CC1=NOC(=O)/C1=C/c1ccc(-c2ccc(Cl)cc2)o1`: the IC50 was 18.4 µM and the IC90 is more than 100 µM.

For the compound `CC(C)(C)NC(=O)C(=O)NNC(=O)c1ccc(C(C)(C)C)cc1`, the IC50 is 14.4 µM and the IC90 was more than 100 µM.

In the case of `CCN(CC)C(=O)Oc1ccc2c(=O)c(-c3ccc(OC)cc3)coc2c1`, the IC50 is 52.8 µM and the IC90 is more than 100 µM.

In the case of `Oc1ccc(C[C@H]2CNCCN2CCCCC2CCCCC2)cc1`, the IC50 was 40 µM and the IC90 came out at 55.3 µM.

On to `C[N+](C)(CCCCCC[N+](C)(C)CCCN1C(=O)c2cccc3cccc(c23)C1=O)CCCN1C(=O)c2cccc3cccc(c23)C1=O`, for which the IC50 is 3.64 µM and the IC90 was determined as 5.15 µM.

In the case of `C=CC[n+]1ccn(-c2nc3ccccc3nc2[N-]S(=O)(=O)c2cccs2)c1`, the IC50 is 42.6 µM and the IC90 was found to be 48.1 µM.

As to `C=CCNC(=S)N/N=C(\C)c1ccccn1`, the IC50 was 23.4 µM and the IC90 stood at 45.5 µM.

`Oc1cc(Nc2ccccc2)cc2cccnc12`: the IC50 was 19.7 µM and the IC90 turned out to be 24.7 µM.

In the case of `O=C(Nc1ccccc1)C1=C[C@@H](C2CCCCC2)C[C@@H](OCc2ccc(CO)cc2)O1`, the IC50 is 36 µM and the IC90 came out at 47.6 µM.

Take `O=C(CCl)NCCCCCCCCCNC(=O)CCl`: the IC50 is less than 0.2 µM and the IC90 is more than 100 µM.

On to `CCN(CC)C(=O)[C@H]1CC(CC(=O)NCC23CC4CC(CC(C4)C2)C3)C(=O)N2CCc3c([nH]c4ccccc34)[C@]12C` (stereo not given in full), for which the IC50 was 19.4 µM and the IC90 was determined as 29.7 µM.

Consider `CCOc1ccc(-c2[nH]ncc2-c2ccc(Cl)cc2)c(O)c1`, for which the IC50 was 44.8 µM and the IC90 was found to be 72.3 µM.
